Broadly, the melting point is the temperature, or range, at which the solid turns liquid.

One data set relates to HCT116 cells. Description: Mitotic arrest assay on HCT116 cells (phospho-histone H3 Ser10). As to conditions: Homo sapiens, HCT-116, HCT116 cells; lowest active dose; read-out: Mitotic arrest HCT116 LAD (converted). Format: cell-based, human. The gist of the method: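 Seeded overnight, then compound-treated 6 h at 37 °C (≤0.1% DMSO); fixed, stained with Alexa Fluor 488 anti-phospho-H3 (Ser10) plus Hoechst 33342, imaged on InCell Analyzer 1000. Blank-subtracted signal divided by SD (sigma), triplicate; value is lowest dose giving sigma >5 (LAD).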

Structures are written as SMILES.

Molecule `CCc1cc2ccc([C@@](C)(C#N)CN(C)Cc3ccc(C#N)cc3)cc2[nH]c1=O` (single isomer, unassigned) [Compound 253] yielded a melting point of 116 °C.
On to `CCc1cc2ccc(C(C)(C#N)Cc3cccc(-c4cnn(C)c4)c3)cc2[nH]c1=O` (stereo not shown) [Compound 17], for which the melting point worked out at 170 °C. Moreover, in the data set on HCT116 cells, the minimal effective concentration is 1 µM.
The like results for `CCc1cc2ccc(C(C)(C#N)Cc3cccc(-c4ccccc4)c3)cc2[nH]c1=O` (stereo not shown) [Compound 18] were, in that order, 192 °C and 0.316 µM.
For `CCc1cc2ccc(C(C)(C#N)Cc3cccc(I)c3)cc2[nH]c1=O` (stereo not shown) [Compound 19], in that order: 158 °C and 0.1 µM.
Turning to `CCc1cc2ccc(C(C)(C#N)Cc3cccc(N(C)C)c3)cc2[nH]c1=O` (stereo not shown) [Compound 20], the melting point came out at 193 °C. Further, the minimal effective concentration in the data set with HCT116 cells was 0.1 µM.
Consider `CCc1cc2ccc(C(C)(C#N)Cc3cccc(N4CCOCC4)c3)cc2[nH]c1=O` (stereo not shown) [Compound 21], for which the melting point was found to be 162 °C. Further, the minimal effective concentration with HCT116 cells was 0.316 µM.
For `CCc1cc2ccc(C(C)(C#N)Cc3cccc(O)c3)cc2[nH]c1=O` (stereo not shown) [Compound 22], in that order: 217 °C and 3.16 µM.
The like results for `CCc1cc2ccc(C(C)(C#N)Cc3cccc(OCc4ccccc4)c3)cc2[nH]c1=O` (stereo not shown) [Compound 23] were, in that order, 150 °C and 1 µM.
For `CCc1cc2ccc(C(C)(C#N)Cc3cccc(OCCOC)c3)cc2[nH]c1=O` (stereo not shown) [Compound 24], in that order: 134 °C and 1 µM.
As to `CCc1cc2ccc(C(C)(C#N)Cc3cc(C)cc(C#N)c3)cc2[nH]c1=O` (stereo not shown) [Compound 174], the melting point turned out to be 212 °C.
In turn, `CCc1cc2ccc(C(C)(C#N)Cc3cccc(S(F)(F)(F)(F)F)c3)cc2[nH]c1=O` (stereo not shown) [Compound 177] showed a melting point of 124 °C.
For `CCc1cc2ccc(C(C)(C#N)Cc3cccc(C4(N)CC4)c3)cc2[nH]c1=O` (stereo not shown) [Compound 180], the melting point is over 250 °C.
Same read-out and setting: the result for `CCc1cc2ccc(C(C)(C#N)CCCN(C)C(=O)c3ccc(F)cc3)cc2[nH]c1=O` (stereo not shown) [Compound 188] reads 256 °C.
Still for that read-out and setting: next, `CCc1cc2ccc([C@](C)(C#N)CN(C)Cc3ccc(C#N)cc3)cc2[nH]c1=O` [Compound 190]: 106 °C; `CCc1cc2cc(C)c(C(C)(C#N)Cc3cccc(C#N)n3)cc2[nH]c1=O` (stereo not shown) [Compound 208]: over 250 °C.
For `CCc1cc2ccc(C(C)(C#N)Cc3ccc(Cl)nc3Cl)cc2[nH]c1=O` (stereo not shown) [Compound 212], the melting point amounted to 222 °C.
Same read-out and setting: next, `COc1cc2ccc(C(C)(C#N)Cc3cccc(C#N)n3)cc2[nH]c1=O` (stereo not shown) [Compound 218]: 95 °C; `CCc1cc2ccc(C(C)(C#N)Cc3ccc(OC)nc3Cl)cc2[nH]c1=O` (stereo not shown) [Compound 224]: 167 °C.
Still for that read-out and setting: the result for `CCc1cc2ccc(C(C)(C#N)Cc3ccc(Cl)nc3OC)cc2[nH]c1=O` (stereo not shown) [Compound 225] reads 160 °C; that for `CCc1cc2ccc(C(C)(C#N)Cc3cccc(N4CCCC4)n3)cc2[nH]c1=O` (stereo not shown) [Compound 226], 155 °C.
`CCc1cc2ccc(C(C)(C#N)Cc3cc(OC)cc(OC)n3)cc2[nH]c1=O` (stereo not shown) [Compound 232] came in with a melting point of 65 °C.
Still for that read-out and setting: the result for `CCc1cc2ccc(C(C)(C#N)Cc3cc(C#N)cc4c3OCC4)cc2[nH]c1=O` (stereo not shown) [Compound 236] reads 250 °C; that for `CCc1cc2ccc(C(C)(C#N)Cc3cc4ccccc4nn3)cc2[nH]c1=O` (stereo not shown) [Compound 238], 250 °C.

Values taken from patent publication US8778966B2, “Quinolinone derivatives as PARP and tank inhibitors” (Janssen Pharmaceutica, NV, priority 2007, dated 2014).
